For experiment [1], the system named is Plasmodium vinckeii. Put plainly: Efficacy against malaria in vivo, modified Peters' test, treatment of infected mice. On the procedure:
The various derivatives were tested by the modified Peters' test. The substances were applied here in a quarter of the median lethal dose (LD50). In the test batch ten mice were infected with Plasmodium vinckeii, the pathogen of mouse malaria. After confirmation of the infection by blood testing four mice were treated. Six mice, which were not treated, served as a control group. […] The control mice had to be killed on day 5 after infection with parasitaemia of >80%.

Experiment [2] concerns Plasmodium falciparum Dd2 (Indo-China). The experiment is described as follows: In vitro cytotoxicity against malaria parasites, [3H]-hypoxanthine insertion, strain Dd2. The conditions noted are these: strain Dd2, resistant to cloroquine, quinine, pyrimethamine, cycloguanil and sulfadoxine, 48 hours incubation, then 24 hours [3H]-hypoxanthine, read-out: IC50 value (concentration at which the vitality of parasites is reduced by a half). Format: cell-based. As to the method:
(§1) On the Principle of IC50 Determination According to Vial et al (the Concentration at Which the Vitality of Parasites is Reduced by a Half)
(§2) To determine the IC50 value according to Vial et al malaria parasites are initially cultivated for a complete 48 hour cycle in the presence of inhibitors, in the subsequent 24 hours the survival rate is measured by [^3H]-hypoxanthine insertion.
(§3) A dilution series of 3-(N-formyl-N-hydroxylamino)-propylphosphonic acid monosodium salt is placed in 20 μl aliquots concentrated by 10 on a microtitre plate. Then 180 μl parasite suspension in culture medium is added to each well. Asynchronous cultures with a parasitaemia of approximately 0.4% and 2% haematocrite are used. The microtitre plates are subsequently incubated for 48 hours. Then 30 μl [^3H]-hypoxanthine are added to each well. After 24 hours of incubation the cells were harvested and the incorporated radioactivity was measured. In FIG. 1 the results with the strains HB3 and Dd2 are shown with known resistances against other malaria pharmaceutical compositions. In both strains there is a IC50 value of approximately 100 μg/l. The resistances of these strains are:
Plasmodium falciparum Dd2 (Indo-China) is resistant to cloroquine, quinine, pyrimethamine, cycloguanil and sulfadoxine.

Experiment [3] relates to Plasmodium falciparum HB3 (Honduras). The experiment is described as follows: In vitro cytotoxicity against malaria parasites, [3H]-hypoxanthine insertion, strain HB3. Format: cell-based. The settings on record: strain HB3, resistant to pyrimethamine, 48 hours incubation, then 24 hours [3H]-hypoxanthine, read-out: IC50 value (concentration at which the vitality of parasites is reduced by a half). On the procedure: as §1, §2, §3
Plasmodium falciparum HB3 (Honduras) is resistant to pyrimethamine.

Experiment [4] deals with Plasmodium vinckeii. Put plainly: Protection from malaria in infected mice, pretreatment one day before infection. Type of experiment: in vivo, mice (BALB/c-strain). As to the method: The efficacy of compounds in vivo against malaria was tested using male mice weighing 20 to 25 g (BALB/c-strain). Four mice were treated intraperitoneally with 50 mg/kg 3-(N-formyl-N-hydroxylamino)-propylphosphonic acid monosodium salt one day before infection. The mice were then infected with Plasmodium vinckeii. Mice which were not pretreated with the substance served as a control group.

For the compound `O=CN(O)CCCP(=O)([O-])O.[Na+]` [3-(N-formyl-N-hydroxylamino)-propylphosphonic acid monosodium salt], the “living parasites after 1 day” value with Plasmodium vinckeii [1] (50 mg/kg/d, mice with a parasitaemia of 80%, after 1 day) was “free of living parasites”. Moreover, the “parasites 8 weeks after the treatment had stopped” value in the experiment on Plasmodium vinckeii [1] (1,000 mg/kg/d over 3 days, 8 weeks after end of treatment) is on record as “still free from parasites”. Further, in the experiment with Plasmodium vinckeii [1] (1,000 mg/kg/d over 3 days, mice infected with Plasmodium vinckeii), the “effect on parasites in the mice's blood” value is recorded as “destruction of the parasites”. Besides, the “living parasites in treated group after one day” value in the experiment with Plasmodium vinckeii [1] (1,000 mg/kg/d, after just one day) was “free of living parasites”. Also, the IC50 in experiment [2] and in experiment [3] was about 0.1 µg/mL in each case. Moreover, the “infection in pretreated mice” value in the experiment on Plasmodium vinckeii [4] (50 mg/kg intraperitoneally one day before infection with Plasmodium vinckeii) is “No infection could be detected”. Also, the “parasites 8 weeks after infection” value in the experiment on Plasmodium vinckeii [4] (50 mg/kg intraperitoneally one day before infection, 8 weeks after infection) is “still free of parasites”.

(Values after patent US6680308B1, “Use of organophosphorus compounds for the therapeutic and prophylactic treatment of infections” (priority 1998, dated 2004).)
